Data published in PubChem BioAssay (NCI).
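The compound was tested at five concentrations on cells cultured in 96-well plates, with a 48-hour exposure period. GI50 is the concentration that inhibits growth by half. TGI: total growth inhibition.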

Experiments:
Assay in all cases: growth of human tumour cells (NCI), 48 h
786-0 renal = test system: 786-0 renal
A498 renal = test system: A498 renal
A549 NSCLC = test system: A549 NSCLC
ACHN renal = test system: ACHN renal
CAKI-1 renal = test system: CAKI-1 renal
CCRF-CEM leukemia = test system: CCRF-CEM leukemia
COLO 205 colon = test system: COLO 205 colon
DU-145 prostate = test system: DU-145 prostate
EKVX NSCLC = test system: EKVX NSCLC
HCC-2998 colon = test system: HCC-2998 colon
HCT-116 colon = test system: HCT-116 colon
HCT-15 colon = test system: HCT-15 colon
HL-60(TB) leukemia = test system: HL-60(TB) leukemia
HOP-62 NSCLC = test system: HOP-62 NSCLC
HOP-92 NSCLC = test system: HOP-92 NSCLC
HS 578T breast = test system: HS 578T breast
HT29 colon = test system: HT29 colon
IGROV1 ovarian = test system: IGROV1 ovarian
K-562 leukemia = test system: K-562 leukemia
KM12 colon = test system: KM12 colon
LOX IMVI melanoma = test system: LOX IMVI melanoma
M14 melanoma = test system: M14 melanoma
MALME-3M melanoma = test system: MALME-3M melanoma
MCF7 breast = test system: MCF7 breast
MDA-MB-231 breast = test system: MDA-MB-231 breast
MDA-MB-435 = test system: MDA-MB-435
MOLT-4 leukemia = test system: MOLT-4 leukemia
NCI-H226 lung = test system: NCI-H226 lung
NCI-H23 lung = test system: NCI-H23 lung
NCI-H460 lung = test system: NCI-H460 lung
NCI-H522 lung = test system: NCI-H522 lung
NCI/ADR-RES ovarian = test system: NCI/ADR-RES ovarian
OVCAR-3 ovarian = test system: OVCAR-3 ovarian
OVCAR-4 ovarian = test system: OVCAR-4 ovarian
OVCAR-5 ovarian = test system: OVCAR-5 ovarian
OVCAR-8 ovarian = test system: OVCAR-8 ovarian
PC-3 prostate = test system: PC-3 prostate
RPMI-8226 leukemia = test system: RPMI-8226 leukemia
RXF 393 renal = test system: RXF 393 renal
SF-268 CNS = test system: SF-268 CNS
SF-295 CNS = test system: SF-295 CNS
SF-539 CNS = test system: SF-539 CNS
SK-MEL-2 melanoma = test system: SK-MEL-2 melanoma
SK-MEL-28 melanoma = test system: SK-MEL-28 melanoma
SK-MEL-5 melanoma = test system: SK-MEL-5 melanoma
SK-OV-3 ovarian = test system: SK-OV-3 ovarian
SN12C renal = test system: SN12C renal
SNB-19 CNS = test system: SNB-19 CNS
SNB-75 CNS = test system: SNB-75 CNS
SR leukemia = test system: SR leukemia
SW-620 colon = test system: SW-620 colon
T-47D breast = test system: T-47D breast
TK-10 renal = test system: TK-10 renal
U251 CNS = test system: U251 CNS
UACC-257 melanoma = test system: UACC-257 melanoma
UACC-62 melanoma = test system: UACC-62 melanoma
UO-31 renal = test system: UO-31 renal

`COc1ccc(C(=O)c2ccccc2)c(O)c1` was tested, and the GI50 (786-0 renal) was > 100 µM, the TGI (786-0 renal) was > 100 µM and the GI50 (A498 renal) was 16 µM. For the same molecule, the TGI (A498 renal) was > 100 µM, the GI50 (A549 NSCLC) was > 100 µM and the TGI (A549 NSCLC) was > 100 µM. For the same molecule, the GI50 (ACHN renal) was > 100 µM, the TGI (ACHN renal) was > 100 µM and the GI50 (CAKI-1 renal) was 67.4 µM. For the same molecule, the TGI (CAKI-1 renal) was > 100 µM, the GI50 (CCRF-CEM leukemia) was > 100 µM and the TGI (CCRF-CEM leukemia) was > 100 µM. The GI50 (COLO 205 colon) was > 100 µM, the TGI (COLO 205 colon) was > 100 µM and the GI50 (DU-145 prostate) was 80 µM. The TGI (DU-145 prostate) was > 100 µM, the GI50 (EKVX NSCLC) was 40.9 µM and the TGI (EKVX NSCLC) was > 100 µM. For the same molecule, the GI50 (HCC-2998 colon) was > 100 µM, the TGI (HCC-2998 colon) was > 100 µM and the GI50 (HCT-116 colon) was 50.7 µM. For the same molecule, the TGI (HCT-116 colon) was > 100 µM, the GI50 (HCT-15 colon) was 80.7 µM and the TGI (HCT-15 colon) was > 100 µM. The GI50 (HL-60(TB) leukemia) was 96.9 µM, the TGI (HL-60(TB) leukemia) was > 100 µM and the GI50 (HOP-62 NSCLC) was > 100 µM. For the same molecule, the TGI (HOP-62 NSCLC) was > 100 µM, the GI50 (HOP-92 NSCLC) was 78.5 µM and the TGI (HOP-92 NSCLC) was > 100 µM. For the same molecule, the GI50 (HS 578T breast) was 61.2 µM, the TGI (HS 578T breast) was > 100 µM and the GI50 (HT29 colon) was 43.8 µM. The TGI (HT29 colon) was > 100 µM, the GI50 (IGROV1 ovarian) was > 100 µM and the TGI (IGROV1 ovarian) was > 100 µM. The GI50 (K-562 leukemia) was 91 µM, the TGI (K-562 leukemia) was > 100 µM and the GI50 (KM12 colon) was 63 µM. For the same molecule, the TGI (KM12 colon) was > 100 µM, the GI50 (LOX IMVI melanoma) was 92 µM and the TGI (LOX IMVI melanoma) was > 100 µM. The GI50 (M14 melanoma) was 81.7 µM, the TGI (M14 melanoma) was > 100 µM and the GI50 (MALME-3M melanoma) was 61.4 µM. For the same molecule, the TGI (MALME-3M melanoma) was > 100 µM, the GI50 (MCF7 breast) was > 100 µM and the TGI (MCF7 breast) was > 100 µM. For the same molecule, the GI50 (MDA-MB-231 breast) was > 100 µM, the TGI (MDA-MB-231 breast) was > 100 µM and the GI50 (MDA-MB-435) was 66.6 µM. The TGI (MDA-MB-435) was > 100 µM, the GI50 (MOLT-4 leukemia) was 70.6 µM and the TGI (MOLT-4 leukemia) was > 100 µM. The GI50 (NCI-H226 lung) was > 100 µM, the TGI (NCI-H226 lung) was > 100 µM and the GI50 (NCI-H23 lung) was > 100 µM. The TGI (NCI-H23 lung) was > 100 µM, the GI50 (NCI-H460 lung) was 88.4 µM and the TGI (NCI-H460 lung) was > 100 µM. The GI50 (NCI-H522 lung) was 89.9 µM, the TGI (NCI-H522 lung) was > 100 µM and the GI50 (NCI/ADR-RES ovarian) was 53.1 µM. The TGI (NCI/ADR-RES ovarian) was > 100 µM, the GI50 (OVCAR-3 ovarian) was > 100 µM and the TGI (OVCAR-3 ovarian) was > 100 µM. The GI50 (OVCAR-4 ovarian) was > 100 µM, the TGI (OVCAR-4 ovarian) was > 100 µM and the GI50 (OVCAR-5 ovarian) was > 100 µM. The TGI (OVCAR-5 ovarian) was > 100 µM, the GI50 (OVCAR-8 ovarian) was > 100 µM and the TGI (OVCAR-8 ovarian) was > 100 µM. The GI50 (PC-3 prostate) was > 100 µM, the TGI (PC-3 prostate) was > 100 µM and the GI50 (RPMI-8226 leukemia) was 82.2 µM. The TGI (RPMI-8226 leukemia) was > 100 µM, the GI50 (RXF 393 renal) was 41 µM and the TGI (RXF 393 renal) was > 100 µM. For the same molecule, the GI50 (SF-268 CNS) was 55.2 µM, the TGI (SF-268 CNS) was > 100 µM and the GI50 (SF-295 CNS) was 36 µM. For the same molecule, the TGI (SF-295 CNS) was > 100 µM, the GI50 (SF-539 CNS) was > 100 µM and the TGI (SF-539 CNS) was > 100 µM. The GI50 (SK-MEL-2 melanoma) was > 100 µM, the TGI (SK-MEL-2 melanoma) was > 100 µM and the GI50 (SK-MEL-28 melanoma) was > 100 µM. The TGI (SK-MEL-28 melanoma) was > 100 µM, the GI50 (SK-MEL-5 melanoma) was 37.9 µM and the TGI (SK-MEL-5 melanoma) was > 100 µM. The GI50 (SK-OV-3 ovarian) was > 100 µM, the TGI (SK-OV-3 ovarian) was > 100 µM and the GI50 (SN12C renal) was 75.6 µM. The TGI (SN12C renal) was > 100 µM, the GI50 (SNB-19 CNS) was > 100 µM and the TGI (SNB-19 CNS) was > 100 µM. The GI50 (SNB-75 CNS) was 20.4 µM, the TGI (SNB-75 CNS) was > 100 µM and the GI50 (SR leukemia) was 45.7 µM. The TGI (SR leukemia) was > 100 µM, the GI50 (SW-620 colon) was > 100 µM and the TGI (SW-620 colon) was > 100 µM. The GI50 (T-47D breast) was 10.1 µM, the TGI (T-47D breast) was > 100 µM and the GI50 (TK-10 renal) was > 100 µM. For the same molecule, the TGI (TK-10 renal) was > 100 µM, the GI50 (U251 CNS) was 66.3 µM and the TGI (U251 CNS) was > 100 µM. The GI50 (UACC-257 melanoma) was > 100 µM, the TGI (UACC-257 melanoma) was > 100 µM and the GI50 (UACC-62 melanoma) was 57.1 µM. For the same molecule, the TGI (UACC-62 melanoma) was > 100 µM, the GI50 (UO-31 renal) was 17 µM and the TGI (UO-31 renal) was > 100 µM.
